From paper PMC7906907, “Targeting STAT3 by a small molecule suppresses pancreatic cancer progression” (Oncogene, 2021)

Assays:
[1] = tested on: PANC-1 cells; assay: PANC-1 shNC / shSTAT3 xenograft with drug withdrawal; assay type: in vivo, Mice
Text: To provide further evidence that STAT3 is the direct target of N4, we constructed two STAT3 stable knockdown cell lines by the short hairpin RNA (shRNA) (Supplementary Fig. S10A), and the sequence of shRNA was list in Supplementary Table S3. […] At the meantime, the effect of drug withdrawal on tumor volume and weight was also examined. After 20 days of treatment, all the drug or vehicle were removed and the tumor was allowed to grow for another 12 days. […] Thus, N4 kept the suppression on tumor growth compared to vehicle group during the drug withdrawal period.
Supplementary Figure 10. STAT3 knockdown cells are resistant to N4 in vivo. (A) PANC-1 cells were transfected with shRNA that targeted STAT3 or negative control, and the knockdown efficiency was examined by western blot. (B) Mice bearing the PANC-1 cells within STAT3 stable knockdown (shSTAT3-1#) or negative control (shNC), and administration N4 or vehicle (control) every day by i.p. After 20 days treatment, the N4 and vehicle were removed for another 12 days. Then the mice were sacrificed and the tumor was removed and photographed (n=5 per group). (C) The tumor volume was measured every 3-4 days and the volume was calculated by the formula: length × width2 ×0.52, data are shown as mean ± SD, ****P < 0.0001 and n.s., not significant by one-way ANOVA followed by multiple-comparison tests. (D) After […]

[2] = tested on: STAT3 nuclear translocation; assay: Immunofluorescence of STAT3 nuclear translocation; assay type: cell-based; conditions: PANC-1 cells, 2 μM for 24 h, then IL-6
Method: Fig. 2 N4 inhibits STAT3 activation in pancreatic cancer cells. A PANC-1, CAPAN-2, and BXPC-3 cells were treated with the indicated concentrations of N4 for 24 h. Then, p-STAT3 (Y705), p-STAT3 (S727), and STAT3 were detected by western blot assays with glyceraldehyde 3-phosphate dehydrogenase (GAPDH) used as the loading control. B Pancreatic cancer cells were starved in a medium lacking fetal bovine serum (FBS; basic medium) for 24 h, and then pretreated with N4 in basic medium for 24 h. Then, stimulated with IL-6 (20 ng/mL) for 30 min and lysed for western blot analysis using the indicated antibodies. C Expression levels of STAT3 downstream genes were detected by western blot following treatment of PANC-1 and CAPAN-2 cells with N4. D PANC-1 cells were seeded and allowed to attach, and then pretreated with 2 μM of N4 in FBS-free medium for 24 h. The cells were stimulated for 30 min using IL-6 (20 ng/mL). […] The samples were photographed and analyzed. […] E After 24 h treatment with 2 μM N4, PANC-1 cells were stimulated with IL-6 (20 ng/mL) for 30 min, and the cytoplasmic and nuclear extractions were analyzed by western blot. p-STAT3 (Y705) was used to detect STAT3, and GAPDH and H3 were used as the cytoplasm and nucleus internal control, respectively.
Immunofluorescence staining was performed as previously described. […] Images were recorded by confocal microscopy (Leica).

[3] = biological target: T1, STAT3-SH2 (Homo sapiens, UniProt P40763); assay: Microscale thermophoresis (MST) assay, STAT3-SH2; assay type: binding
T1 construct: made in house
Text: Fig. 3 N4 interacts with the STAT3-SH2 domain and interferes with the STAT3-EGFR and STAT3-NF-κB interactions. […] C–E The binding between N4 and STAT3 was examined in (C) SPR and (D) MST experiments. His-STAT3^127-722 protein was purified and used to examine the affinity between STAT3 and N4. (E) The binding between N4 and STAT3^SH2 was confirmed in MST assays. STAT3-SH2 protein was purified and labeled. N4 was serially diluted and mixed with equal volumes of labeled STAT3^SH2 protein. The MST signal was measured, and the data were analyzed by MO analysis software. F, G The FLAG-tag and HA-tag STAT3 expression plasmid was transfected into 293 T cells, followed by the addition of the indicated concentrations of N4. After 24 h, cells were lysed, and immunoprecipitation experiments were performed as described in Materials and Methods. H N4 represses STAT3 dimerization in pancreatic cancer cells. I After a 24 h treatment with 2 μM N4, pancreatic cancer cells were stimulated with IL-6 for 30 min. Cell lysates were immunoprecipitated with STAT3 overnight. […]
The MST assay was previously described. Binding affinities of N4 with the purified His-STAT3-SH2 were measured using the Monolith NT.115 device (NanoTemper Technologies). […] The samples were then loaded into premium capillaries (NanoTemper Technologies) and measured using the Monolith NT.115 device. […]

T1 sequence (P40763 580-670 limits assumed): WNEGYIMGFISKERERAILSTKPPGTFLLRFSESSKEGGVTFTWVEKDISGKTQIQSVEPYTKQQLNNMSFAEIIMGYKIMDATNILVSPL

`COc1cc2c(cc1C(=O)Nc1cccc3cccnc13)CCC1C(C)(C)C(=O)C(C#N)=C[C@]21C` (stereo partly shown) [N4] was tested, and the “sensitivity of STAT3 stable knockdown cells to treatment” value ([1]; compared with control cells) was “not sensitive”, the “increase in tumor volume during the drug withdrawal period” value ([1]; shNC-N4 group, 20 days treatment i.p., then 12 days withdrawal) was 249.49 mm^3 and the STAT3 nuclear translocation [2] was “substantially impaired”. The Kd [3] was 1010 nM.
